Reference: patent US8211662B2, “Nitroreductase enzymatic substrates” (Biomerieux, priority 2007, dated 2012)

Legend:
[1] = system: Bacillus subtilis NCTC 9372; test: Nitroreductase detection on Columbia agar, colonies read under UV; type: cell-based; parameters: key: − = no fluorescence detected; +/− = weak fluorescence; + = medium fluorescence; ++ = strong fluorescence; settings: Table 3; 100 mg/l in Columbia agar, 24 h 37° C., UV 360-365 nm
How it was run: (§1)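 Columbia agar + substrate 100 mg/l final (DMF vehicle); inoculum 10 μl of 0.5 McFarland diluted 1/20, semi-quantitative streak; 24 h, 37° C.; colonies read visually under UV 360-365 nm.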

[2] = system: Burkholderia cepacia 1222; test: as above; type: cell-based; parameters: key: − = no fluorescence detected; +/− = weak fluorescence; + = medium fluorescence; ++ = strong fluorescence; settings: Table 3; 100 mg/l in Columbia agar, 24 h 37° C., UV 360-365 nm
How it was run: as §1

[3] = system: Candida albicans ATCC 90028; test: as above; type: cell-based; parameters: key: − = no fluorescence detected; +/− = weak fluorescence; + = medium fluorescence; ++ = strong fluorescence; settings: Table 3; 100 mg/l in Columbia agar, 24 h 37° C., UV 360-365 nm
How it was run: as §1

[4] = system: Citrobacter freundii 46262 (wild); test: as above; type: cell-based; parameters: key: − = no fluorescence detected; +/− = weak fluorescence; + = medium fluorescence; ++ = strong fluorescence; settings: Table 3; 100 mg/l in Columbia agar, 24 h 37° C., UV 360-365 nm
How it was run: as §1

[5] = system: Enterobacter cloacae NCTC 11936; test: as above; type: cell-based; parameters: key: − = no fluorescence detected; +/− = weak fluorescence; + = medium fluorescence; ++ = strong fluorescence; settings: Table 3; 100 mg/l in Columbia agar, 24 h 37° C., UV 360-365 nm
How it was run: as §1

[6] = system: Enterococcus faecalis NCTC 775; test: as above; type: cell-based; parameters: key: − = no fluorescence detected; +/− = weak fluorescence; + = medium fluorescence; ++ = strong fluorescence; settings: Table 3; 100 mg/l in Columbia agar, 24 h 37° C., UV 360-365 nm
How it was run: as §1

[7] = system: Enterococcus faecium NCTC 7171; test: as above; type: cell-based; parameters: key: − = no fluorescence detected; +/− = weak fluorescence; + = medium fluorescence; ++ = strong fluorescence; settings: Table 3; 100 mg/l in Columbia agar, 24 h 37° C., UV 360-365 nm
How it was run: as §1

[8] = system: Escherichia coli NCTC 10418; test: as above; type: cell-based; parameters: key: − = no fluorescence detected; +/− = weak fluorescence; + = medium fluorescence; ++ = strong fluorescence; settings: Table 3; 100 mg/l in Columbia agar, 24 h 37° C., UV 360-365 nm
How it was run: as §1

[9] = system: Listeria monocytogenes NCTC 11994; test: as above; type: cell-based; parameters: key: − = no fluorescence detected; +/− = weak fluorescence; + = medium fluorescence; ++ = strong fluorescence; settings: Table 3; 100 mg/l in Columbia agar, 24 h 37° C., UV 360-365 nm
How it was run: as §1

[10] = system: Providencia rettgeri NCTC 7475; test: as above; type: cell-based; parameters: key: − = no fluorescence detected; +/− = weak fluorescence; + = medium fluorescence; ++ = strong fluorescence; settings: Table 3; 100 mg/l in Columbia agar, 24 h 37° C., UV 360-365 nm
How it was run: as §1

[11] = system: Pseudomonas aeruginosa NCTC 10662; test: as above; type: cell-based; parameters: key: − = no fluorescence detected; +/− = weak fluorescence; + = medium fluorescence; ++ = strong fluorescence; settings: Table 3; 100 mg/l in Columbia agar, 24 h 37° C., UV 360-365 nm
How it was run: as §1

[12] = system: Serratia marcescens NCTC 10211; test: as above; type: cell-based; parameters: key: − = no fluorescence detected; +/− = weak fluorescence; + = medium fluorescence; ++ = strong fluorescence; settings: Table 3; 100 mg/l in Columbia agar, 24 h 37° C., UV 360-365 nm
How it was run: as §1

[13] = system: Staphylococcus aureus NCTC 6571; test: as above; type: cell-based; parameters: key: − = no fluorescence detected; +/− = weak fluorescence; + = medium fluorescence; ++ = strong fluorescence; settings: Table 3; 100 mg/l in Columbia agar, 24 h 37° C., UV 360-365 nm
How it was run: as §1

[14] = system: Staphylococcus epidermidis NCTC 11047; test: as above; type: cell-based; parameters: key: − = no fluorescence detected; +/− = weak fluorescence; + = medium fluorescence; ++ = strong fluorescence; settings: Table 3; 100 mg/l in Columbia agar, 24 h 37° C., UV 360-365 nm
How it was run: as §1

[15] = system: Streptococcus pyogenes NCTC 8306; test: as above; type: cell-based; parameters: key: − = no fluorescence detected; +/− = weak fluorescence; + = medium fluorescence; ++ = strong fluorescence; settings: Table 3; 100 mg/l in Columbia agar, 24 h 37° C., UV 360-365 nm
How it was run: as §1

[16] = system: Yersinia enterocolitica NCTC 11176; test: as above; type: cell-based; parameters: key: − = no fluorescence detected; +/− = weak fluorescence; + = medium fluorescence; ++ = strong fluorescence; settings: Table 3; 100 mg/l in Columbia agar, 24 h 37° C., UV 360-365 nm
How it was run: as §1

[17] = system: Salmonella typhimurium NCTC 74; test: as above; type: cell-based; parameters: key to Intensity of fluorescence, Salmonella typhimurium NCTC 74 / F: fluorescence (intensity), Salmonella typhimurium NCTC 74 / Intensity of the fluorescence, Salmonella typhimurium NCTC 74: − = no fluorescence detected; +/− = weak fluorescence; + = medium fluorescence; ++ = strong fluorescence; settings: Table 3; 100 mg/l in Columbia agar, 24 h 37° C., UV 360-365 nm
How it was run: as §1

[18] = system: Morganella morganii 462403 (wild); test: as above; type: cell-based; parameters: key to Intensity of fluorescence, Morganella morganii 462403 / F: fluorescence (intensity), Morganella morganii 462403 (wild) / Intensity of the fluorescence, Morganella morganii 462403 (wild): − = no fluorescence detected; +/− = weak fluorescence; + = medium fluorescence; ++ = strong fluorescence; settings: Table 3; 100 mg/l in Columbia agar, 24 h 37° C., UV 360-365 nm
How it was run: as §1

[19] = system: MRSA NCTC 11939; test: as above; type: cell-based, Staphylococcus aureus; parameters: key: − = no fluorescence detected; +/− = weak fluorescence; + = medium fluorescence; ++ = strong fluorescence; settings: Table 3; 100 mg/l in Columbia agar, 24 h 37° C., UV 360-365 nm
How it was run: as §1

[20] = system: Candida glabrata NCPF 3943; test: as above; type: cell-based; parameters: key to Intensity of fluorescence, Candida glabrata NCPF3943 / F: fluorescence (intensity), Candida glabrata NCPF 3943 / Intensity of the fluorescence, Candida glabrata NCPF 3943: − = no fluorescence detected; +/− = weak fluorescence; + = medium fluorescence; ++ = strong fluorescence; settings: Table 3; 100 mg/l in Columbia agar, 24 h 37° C., UV 360-365 nm
How it was run: as §1

O=[N+]([O-])c1ccc(Cl)cc1-c1nc2ccccc2o1 [Substrate 4, 2-(2′-Nitro-5′-chlorophenyl)benzoxazole]
melting point: 130 to 132 °C

O=[N+]([O-])c1cc2c(cc1-c1nc3ccccc3o1)OCO2 [Substrate 5]
F: fluorescence (intensity), Bacillus subtilis NCTC 9372 [1]: −
F: fluorescence (intensity), Burkholderia cepacia 1222 [2]: +
F: fluorescence (intensity), Candida albicans ATCC 90028 [3]: −
F: fluorescence (intensity), Citrobacter freundii 46262 (wild) [4]: ++
F: fluorescence (intensity), Enterobacter cloacae NCTC 11936 [5]: ++
F: fluorescence (intensity), Enterococcus faecails NCTC 775 [6]: −
F: fluorescence (intensity), Enterococcus faecium NCTC 7171 [7]: −
F: fluorescence (intensity), Escherichia coli NCTC 10418 [8]: ++
F: fluorescence (intensity), Listeria monocyto genes NCTC 11994 [9]: +
F: fluorescence (intensity), Providencia rettgeri NCTC 7475 [10]: +
F: fluorescence (intensity), Pseudomonas aeruginosa NCTC 10662 [11]: +
F: fluorescence (intensity), Serratia marcescens NCTC 10211 [12]: ++
F: fluorescence (intensity), Staphylococcus aureus NCTC 6571 [13]: ++
F: fluorescence (intensity), Staphylococcus epidermidis NCTC 11047 [14]: −
F: fluorescence (intensity), Streptococcus pyogenes NCTC 8306 [15]: −
F: fluorescence (intensity), Yersinia enterocolitica NCTC 11176 [16]: −
F: fluorescence (intensity), Salmonella typhimurium NCTC 74 [17]: ++
F: fluorescence (intensity), Morganella morganii 462403 (wild) [18]: ++
F: fluorescence (intensity), MRSA NCTC 11939 [19]: ++
F: fluorescence (intensity), Candida glabrata NCPF 3943 [20]: −
